In article PMC8839939 (Polymers, 2022):

Key:
[1] = In-vivo pharmacokinetic study in mice; conditions: mouse, plasma
Method: In in-vivo study, the average mouse weight was 24 ± 5 g. Mice were acclimated for 7 days prior to the study and fasted for 24 h before the study. All in-vivo experiments were approved by the ethical committee, Faculty of Pharmacy, Gomal University (No: 10/ERB/GU). The mice were anesthetized under gas anesthesia (i.e., isoflurane in oxygen (2–4% (v/v))). Bulk hairs were removed with an electrical clipper and then a depilatory cream was applied to remove the remaining hair that could interfere with the insertion of LS-TC-MNP [41, 42]. Hairs were removed from the back area of mouse at 4 h prior to experiment. Mice were divided into two groups (n = 16 per group (total: 32)); oral (given the oral LS dispersion) and transdermal (LS-TC-MNP inserted in skin). Mice in the oral group received an oral LS dispersion of (200 mg/kg). The transdermal group was the LS-TC-MNP treatment group, in which each mouse was treated with (LS = 25 mg) LS-TC-MNP. To facilitate the insertion of LS-TC-MNP, the mice were anesthetized by gas anesthesia. The mice skin was pinched, and LS-TC-MNP attached to self-adhesive margins was inserted with firm finger pressure onto the back of each mouse. Blood samples were withdrawn by bleeding the tail vein at predetermined time intervals. The study plan was 16 mice per group and a maximum of (n = 3) blood samples was withdrawn from each mouse. Each mouse was bled twice a day. After 1 and 4 h, blood was withdrawn from the first 4 mice; the next 4 mice were bled after 2 and 6 h; the next four mice at 8 and 24 h; the remaining 4 mice at 12 h; and all mice (n = 16) at 48 h. The area under the curve and other pharmacokinetic parameters were measured by using Pk solver software (Microsoft Excel add-in programm).

[2] = cited from earlier work

Q: For `CCN1CCC[C@H]1CNC(=O)c1cc(S(N)(=O)=O)ccc1OC` [Levosulpiride, 5-(amino-sulfonyl)-N-[(1-ethyl-2-pyrrolidinyl)methyl]-2-methoxy benzamide], which concentration at 1 h ([1]; 1 h, patch LS = 25 mg transdermal or oral dispersion 200 mg/kg) is on record?
A: 500 ± 1940 ng/mL

Q: And the concentration at 2 h ([1]; 2 h, oral dispersion 200 mg/kg, read-out: LS plasma concentration)?
A: 200 ng/mL

Q: And the concentration at 4 h ([1]; 4 h, oral dispersion 200 mg/kg, read-out: LS plasma concentration)?
A: 180 ng/mL

Q: What about the concentration at 6 h ([1]; 6 h, patch LS = 25 mg transdermal or oral dispersion 200 mg/kg) of the same molecule?
A: 400 ± 1370 ng/mL

Q: And the “intravenous dose excreted unchanged in the urine” value ([2]; intravenous ref 6)?
A: 70–90%

Q: What about the half-life ([2]; oral ref 4) of the same molecule?
A: about 6 h

Q: And the oral bioavailability ([2]; oral ref 4)?
A: less than 25%

Q: And the “oral dose excreted unchanged in the urine” value ([2]; oral ref 6)?
A: 15–25%
